Experimental data published in paper PMC5515969, “Effects of 31 FDA approved small-molecule kinase inhibitors on isolated rat liver mitochondria” (Archives of Toxicology, 2016).
Where two headings read alike, the source gives them in different places.

What was measured:
[1] = tested on: isolated rat liver mitochondria; assay: Mitochondrial oxygen consumption (glutamate/malate or succinate driven, state 4 and state 3); type: biochemical; details: DMSO treated samples set as 1; for State 3 respiration driven by succinate at 10XCmax: key: 0 indicates that the drug had no effects (negative); for State 3 respiration driven by succinate at 1XCmax: key: 0 indicates that the drug had no effects (negative)
Summary of the method: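 Oxygen uptake on glutamate/malate or on succinate defined state 4; ADP added 3 min later gave state 3. Mitochondria isolated from rat liver by differential centrifugation, adjusted to 1 mg/ml and pretreated 5 min with inhibitor (0.1% DMSO final). Values relative to DMSO control, set to 1.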

[2] = tested on: RCC I; assay: RCC I activity in submitochondrial particles; type: biochemical, rat; design: key to RCC I at 10XCmax / RCC I at 100XCmax / RCC I at 50XCmax / RCC I at 30XCmax / RCC I at 20XCmax: activity relative to DMSO-treated controls (control set as 1 = 100%); details: 10XCmax; relative to DMSO treated samples
Summary of the method: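 First, submitochondrial particles (1 mg/ml) are incubated with inhibitor for 15 min. Next, complex activities are followed spectrophotometrically, with RCC I taken as the difference between buffers lacking and containing rotenone. Finally, activities are expressed relative to DMSO controls set at 1.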

[3] = target: T1, RCC II (Rattus norvegicus, UniProt P21913+Q641Z9+Q6PCT8+Q920L2); assay: RCC II activity in submitochondrial particles; type: biochemical; design: key: activity relative to DMSO-treated controls (control set as 1 = 100%); details: relative to DMSO treated samples
T1 construct: Submitochondrial particles were prepared by subjecting the intact mitochondria to three successive freeze–thaw cycles; from tissue; host or cells: rat liver mitochondria, used as submitochondrial particles
Summary of the method: (§1)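 Abs 340 nm (I/V) or 600 nm (II), 1-min reads × 6 min; 550 nm (III, IV), 10-s reads × 2 min. RCC I = rotenone-free minus rotenone rate. DMSO control = 1.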

[4] = tested on: RCC III; assay: RCC III activity in submitochondrial particles; type: biochemical, rat; design: key to RCC III at 100XCmax: activity relative to DMSO-treated controls (control set as 1 = 100%); details: 100XCmax; relative to DMSO treated samples
Summary of the method: as §1

[5] = tested on: RCC IV; assay: RCC IV activity in submitochondrial particles; type: biochemical, rat; design: key to RCC IV at 50XCmax / RCC IV at 100XCmax: activity relative to DMSO-treated controls (control set as 1 = 100%); details: 50XCmax; relative to DMSO treated samples; in %
Summary of the method: as §1

[6] = tested on: isolated rat liver mitochondria; assay: Mitochondrial inner membrane potential (MMP), Rhodamine 123; type: biochemical; details: difference in signal between KI and DMSO treated samples at the end of experiments
Excerpt: Fig. 3 KI effects on mitochondrial inner membrane potential (MMP). […] In a, c, data are means and standard derivations from three separate experiments. *p < 0.05 as compared to DMSO-treated samples at the end of experiments. In b, data are means of two independent experiments

[7] = tested on: isolated rat liver mitochondria; details: positive control alamethicin treated samples
[8] = therapeutic maximal blood concentration, ref product labeling, cited from earlier work
[9] = tested on: isolated rat liver mitochondria; assay: Mitochondrial ROS production (CM-H2DCFDA); details: DMSO treated samples set as 1

T1 sequence (Q920L2 35-656): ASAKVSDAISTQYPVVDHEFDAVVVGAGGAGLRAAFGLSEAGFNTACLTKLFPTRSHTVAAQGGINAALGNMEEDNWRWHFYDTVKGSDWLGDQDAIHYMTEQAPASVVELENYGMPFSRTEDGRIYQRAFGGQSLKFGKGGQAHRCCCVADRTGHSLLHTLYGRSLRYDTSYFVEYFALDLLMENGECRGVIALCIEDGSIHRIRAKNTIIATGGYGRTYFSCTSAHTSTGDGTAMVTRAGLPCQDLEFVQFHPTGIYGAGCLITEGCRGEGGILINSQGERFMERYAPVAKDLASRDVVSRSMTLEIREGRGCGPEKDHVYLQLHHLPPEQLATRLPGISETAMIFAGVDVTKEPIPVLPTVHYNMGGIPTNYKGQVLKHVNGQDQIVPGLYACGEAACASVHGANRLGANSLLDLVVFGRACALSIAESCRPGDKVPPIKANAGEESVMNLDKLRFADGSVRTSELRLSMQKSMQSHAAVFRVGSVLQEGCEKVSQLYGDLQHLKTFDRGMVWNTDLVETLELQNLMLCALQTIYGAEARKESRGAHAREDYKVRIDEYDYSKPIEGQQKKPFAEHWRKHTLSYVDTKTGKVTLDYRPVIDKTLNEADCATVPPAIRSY
T1 sequence (P21913 31-282): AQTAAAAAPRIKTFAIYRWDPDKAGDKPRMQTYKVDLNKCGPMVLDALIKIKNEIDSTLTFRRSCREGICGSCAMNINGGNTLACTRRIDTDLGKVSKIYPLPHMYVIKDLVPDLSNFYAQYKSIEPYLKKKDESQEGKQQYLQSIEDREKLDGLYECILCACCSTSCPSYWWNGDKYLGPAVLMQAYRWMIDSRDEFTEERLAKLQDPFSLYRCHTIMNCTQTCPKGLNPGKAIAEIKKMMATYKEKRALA
T1 sequence (Q641Z9 1-169): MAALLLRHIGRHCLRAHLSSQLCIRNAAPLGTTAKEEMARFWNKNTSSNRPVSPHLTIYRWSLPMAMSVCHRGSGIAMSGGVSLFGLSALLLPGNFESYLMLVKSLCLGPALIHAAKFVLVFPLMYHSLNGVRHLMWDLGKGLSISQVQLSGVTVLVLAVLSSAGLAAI
T1 sequence (Q6PCT8 57-159): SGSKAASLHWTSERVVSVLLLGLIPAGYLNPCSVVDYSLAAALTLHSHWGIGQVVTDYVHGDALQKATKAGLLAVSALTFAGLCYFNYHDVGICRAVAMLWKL

Structure (SMILES): CCN(CC)CCNC(=O)c1c(C)[nH]c(/C=C2\C(=O)Nc3ccc(F)cc32)c1C [sunitinib malate]
- State 3 respiration driven by glutamate/malate at 1XCmax ([1]; 1XCmax): 0
- State 3 respiration driven by succinate at 1XCmax ([1]; 1XCmax): 0
- State 4 respiration driven by glutamate/malate at 1XCmax ([1]; 1XCmax): 0
- State 4 respiration driven by succinate at 1XCmax ([1]; 1XCmax): 0
- State 3 respiration driven by glutamate/malate at 2.5XCmax ([1]; 2.5XCmax): 0
- State 3 respiration driven by succinate at 2.5XCmax ([1]; 2.5XCmax): 0
- State 4 respiration driven by glutamate/malate at 2.5XCmax ([1]; 2.5XCmax): 0
- State 4 respiration driven by succinate at 2.5XCmax ([1]; 2.5XCmax): 0
- State 3 respiration driven by glutamate/malate at 5XCmax ([1]; 5XCmax): 0
- State 3 respiration driven by succinate at 5XCmax ([1]; 5XCmax): 0
- State 4 respiration driven by glutamate/malate at 5XCmax ([1]; 5XCmax): 0
- State 4 respiration driven by succinate at 5XCmax ([1]; 5XCmax): 0
- State 3 respiration driven by glutamate/malate at 10XCmax ([1]; 10XCmax): 0
- State 3 respiration driven by succinate at 10XCmax ([1]; 10XCmax): 0
- State 4 respiration driven by glutamate/malate at 10XCmax ([1]; 10XCmax): 0
- State 4 respiration driven by succinate at 10XCmax ([1]; 10XCmax): 0
- State 3 respiration driven by glutamate/malate at 20XCmax ([1]; 20XCmax): 0
- State 3 respiration driven by succinate at 20XCmax ([1]; 20XCmax): 0
- State 4 respiration driven by glutamate/malate at 20XCmax ([1]; 20XCmax): 0
- State 4 respiration driven by succinate at 20XCmax ([1]; 20XCmax): 0
- State 3 respiration driven by glutamate/malate at 30XCmax ([1]; 30XCmax): 0
- State 3 respiration driven by succinate at 30XCmax ([1]; 30XCmax): 0
- State 4 respiration driven by glutamate/malate at 30XCmax ([1]; 30XCmax): 0
- State 4 respiration driven by succinate at 30XCmax ([1]; 30XCmax): 0
- State 3 respiration driven by glutamate/malate at 50XCmax ([1]; 50XCmax): 0
- State 3 respiration driven by succinate at 50XCmax ([1]; 50XCmax): 0
- State 4 respiration driven by glutamate/malate at 50XCmax ([1]; 50XCmax): 0
- State 4 respiration driven by succinate at 50XCmax ([1]; 50XCmax): 0
- State 3 respiration driven by glutamate/malate at 100XCmax ([1]; 100XCmax): 0
- State 3 respiration driven by succinate at 100XCmax ([1]; 100XCmax): 0
- State 4 respiration driven by glutamate/malate at 100XCmax ([1]; 100XCmax): 0
- State 4 respiration driven by succinate at 100XCmax ([1]; 100XCmax): 0
- RCC I at 10XCmax [2]: 0
- RCC II at 1.0XCmax ([3]; 1.0XCmax): 0
- RCC II at 2.5XCmax ([3]; 2.5XCmax): 0
- RCC II at 5XCmax ([3]; 5XCmax): 0
- RCC II at 10XCmax ([3]; 10XCmax): 0
- RCC II at 20XCmax ([3]; 20XCmax): 0
- RCC II at 30XCmax ([3]; 30XCmax): 0
- RCC II at 50XCmax ([3]; 50XCmax): 0
- RCC II at 100XCmax ([3]; 100XCmax): 0
- RCC III at 100XCmax [4]: 0
- RCC IV at 50XCmax [5]: 0
- MMP measured by Rhodamine 123 at 1XCmax ([6]; 1XCmax): 0
- MMP measured by Rhodamine 123 at 2.5XCmax ([6]; 2.5XCmax): 0
- MMP measured by Rhodamine 123 at 5XCmax ([6]; 5XCmax): 0
- MMP measured by Rhodamine 123 at 10XCmax ([6]; 10XCmax): 0
- MMP measured by Rhodamine 123 at 20XCmax ([6]; 20XCmax): 0
- MMP measured by Rhodamine 123 at 30XCmax ([6]; 30XCmax): 0
- MMP measured by Rhodamine 123 at 50XCmax ([6]; 50XCmax): 0
- MMP measured by Rhodamine 123 at 100XCmax ([6]; 100XCmax): 0
- Cytochrome c release 1XCmax ([7]; 1XCmax): 0
- Cytochrome c release 2.5XCmax ([7]; 2.5XCmax): 0
- Cytochrome c release 5XCmax ([7]; 5XCmax): 0
- Cytochrome c release 10XCmax ([7]; 10XCmax): 0
- Cytochrome c release 20XCmax ([7]; 20XCmax): 0
- Cytochrome c release 30XCmax ([7]; 30XCmax): 0
- Cytochrome c release 50XCmax ([7]; 50XCmax): 0
- Cytochrome c release 100XCmax ([7]; 100XCmax): 0
- Cmax ([8]; read-out: Cmax at µM): 0.12 µM
- Cmax [8]: 61.9 ng/mL
- ROS measured by CM-H2DCFDA at 1XCmax ([9]; 1XCmax): 0
- ROS measured by CM-H2DCFDA at 2.5XCmax ([9]; 2.5XCmax): 0
- ROS measured by CM-H2DCFDA at 5XCmax ([9]; 5XCmax): 0
- ROS measured by CM-H2DCFDA at 10XCmax ([9]; 10XCmax): 0
- ROS measured by CM-H2DCFDA at 20XCmax ([9]; 20XCmax): 0
- ROS measured by CM-H2DCFDA at 30XCmax ([9]; 30XCmax): 0
- ROS measured by CM-H2DCFDA at 50XCmax ([9]; 50XCmax): 0
- ROS measured by CM-H2DCFDA at 100XCmax ([9]; 100XCmax): 0
